Assay results taken from patent US20050074810A1, “Method for non-invasilvely determining the relative levels of two biological substances” (priority 2001, published 2005).
Like-named read-outs stand apart in the source and are kept apart here.

What was measured:
[1] = In vitro reverse iontophoretic extraction of mannitol and sodium with varied sodium level (Example 4); conditions: pig, pH 7.4
Method: The anode was placed in the sub-dermal, “donor” chamber, which contained a physiological pH 7.4 buffer (25 mM Tris/TrisHCl+4 mM KCl).
Both the concentration of the analyte of interest and the internal standard were modified during the experiment.
(§1) To facilitate the analytical chemistry, the donor solutions were spiked with ^14C-labeled mannitol.
(§2) The cathodal (collection) chamber, which contacted the outer surface of the skin, contained a 25 mM Tris/TrisHCl buffer at pH 7.4.
(§3) During the first 3-hour period, the entire content of the cathode solution was withdrawn every 60 minutes and the chamber was refilled with fresh buffer.
During the final 1-hour period, the donor solution was replaced with 5 mM mannitol/ 133 mM NaCl, and the cathodal chamber was then sampled every 30 minutes.

[2] = In vitro reverse iontophoretic extraction of mannitol and sodium (Example 3, second experiment); conditions: pig; for Extracted (mannitol/Na^+) flux (×10^3) ratio / Mannitol flux: pH 7.4
Method: In a second experiment, performed under identical conditions to the first (see FIG. 11), mannitol concentration was 5 mM for the first three hours of experiment, it was then reduced to 3 mM for a subsequent period of one hour and then increased to 10 mM for a subsequent period of one hour.
as §3
During the second 1-hour period, the 5 mM mannitol donor solution was replaced with 3 mM mannitol, and the cathodal chamber was then sampled every 30 minutes.
During the third 1-hour period, the 3 mM mannitol donor solution was replaced with 10 mM mannitol, and the cathodal chamber was then sampled every 30 minutes.

[3] = In vitro reverse iontophoretic extraction of mannitol and sodium (Example 3, first experiment); conditions: pig, pH 7.4
Method: The anode was placed in the sub-dermal, “donor” chamber, which contained a physiological pH 7.4 buffer (25 mM Tris/TrisHCl+133 mM NaCl) to which the analyte mannitol was added.
In a first experiment, mannitol concentration was 5 mM for the first three hours of experiment and was then increased to 10 mM for a subsequent period of three hours.
as §1
The cathodal (collection) chamber, which contacted the outer surface of the skin contained a 25 mM Tris/TrisHCl buffer at pH 7.4.
as §3
During the second 3-hour period, the 5 mM mannitol donor solution was replaced with 10 mM mannitol, and the cathodal chamber was then sampled every 30 minutes.

[4] = In vitro reverse iontophoretic extraction of glucose, mannitol and sodium (Example 6); assay type: in vitro ADME, pig
Method: To facilitate the analytical chemistry, the donor solutions were spiked with tritiated glucose and ^14C-labeled mannitol.
as §2
The experimental design was identical to that in FIG. 11, with the exception that both tritiated glucose and ^14C-labeled mannitol were present in the ‘donor’ anode chamber.
During this period, the entire content of the cathode solution was withdrawn every 60 minutes and the chamber was refilled with fresh buffer.

[5] = Method: Every hour, the entire content of the cathode solution was withdrawn and the chamber refilled with fresh buffer.
Three replicates were performed for each lithium concentration.

## OC[C@@H](O)[C@@H](O)[C@H](O)[C@H](O)CO [Mannitol, mannitol]
[1]; 60 min, 5 mM
  Extracted (mannitol/Na^+) flux (×10^3) ratio: 1.2 ± 0.2 ×10^3
  Mannitol flux: 9.7 ± 1.5 nmol · h^−1 · cm^−2
[1]; 120 min, 5 mM
  Extracted (mannitol/Na^+) flux (×10^3) ratio: 2.1 ± 0.1 ×10^3
  Mannitol flux: 22.0 ± 1.6 nmol · h^−1 · cm^−2
[1]; 180 min, 5 mM
  Extracted (mannitol/Na^+) flux (×10^3) ratio: 2.6 ± 0.1 ×10^3
  Mannitol flux: 28.8 ± 1.3 nmol · h^−1 · cm^−2
[1]; 270 min, 3 mM
  Extracted (mannitol/Na^+) flux (×10^3) ratio: 1.6 ± 0.1 ×10^3
  Mannitol flux: 15.9 ± 0.7 nmol · h^−1 · cm^−2
[1]; 300 min, 3 mM
  Extracted (mannitol/Na^+) flux (×10^3) ratio: 1.4 ± 0.1 ×10^3
  Mannitol flux: 15.3 ± 0.7 nmol · h^−1 · cm^−2
[1]; 330 min, 5 mM
  Extracted (mannitol/Na^+) flux (×10^3) ratio: 2.7 ± 0.1 ×10^3
  Mannitol flux: 29.0 ± 0.8 nmol · h^−1 · cm^−2
[1]; 360 min, 5 mM
  Extracted (mannitol/Na^+) flux (×10^3) ratio: 2.6 ± 0.1 ×10^3
  Mannitol flux: 29.3 ± 0.6 nmol · h^−1 · cm^−2
[2]
  K (Qmann/QNa^+=K.[mann]/[Na^+], slope of FIG. 15b): 0.07
[2]; 60 min, 5 mM
  Extracted (mannitol/Na^+) flux (×10^3) ratio: 1.52 ± 0.4 ×10^3
  Mannitol flux: 13.5 ± 4.1 nmol · h^−1 · cm^−2
[2]; 120 min, 5 mM
  Extracted (mannitol/Na^+) flux (×10^3) ratio: 2.5 ± 0.3 ×10^3
  Mannitol flux: 25.8 ± 4.8 nmol · h^−1 · cm^−2
[2]; 180 min, 5 mM
  Extracted (mannitol/Na^+) flux (×10^3) ratio: 2.7 ± 0.3 ×10^3
  Mannitol flux: 27.8 ± 4.4 nmol · h^−1 · cm^−2
[2]; 210 min, 3 mM
  Extracted (mannitol/Na^+) flux (×10^3) ratio: 1.5 ± 0.2 ×10^3
  Mannitol flux: 16.6 ± 3.2 nmol · h^−1 · cm^−2
[2]; 240 min, 3 mM
  Extracted (mannitol/Na^+) flux (×10^3) ratio: 1.5 ± 0.5 ×10^3
  Mannitol flux: 14.1 ± 2.8 nmol · h^−1 · cm^−2
[2]; 270 min, 10 mM
  Extracted (mannitol/Na^+) flux (×10^3) ratio: 5.2 ± 0.5 ×10^3
  Mannitol flux: 49.6 ± 8.4 nmol · h^−1 · cm^−2
[2]; 300 min, 10 mM
  Extracted (mannitol/Na^+) flux (×10^3) ratio: 5.2 ± 0.7 ×10^3
  Mannitol flux: 48.1 ± 8.7 nmol · h^−1 · cm^−2
[3]; 60 min, 5 mM
  Extracted (mannitol/Na^+) flux (×10^3) ratio: 1.7 ± 0.8 ×10^3
  Mannitol flux: 13.3 ± 7.6 nmol · h^−1 · cm^−2
[3]; 120 min, 5 mM
  Extracted (mannitol/Na^+) flux (×10^3) ratio: 2.2 ± 0.3 ×10^3
  Mannitol flux: 21.0 ± 4.7 nmol · h^−1 · cm^−2
[3]; 180 min, 5 mM
  Extracted (mannitol/Na^+) flux (×10^3) ratio: 2.5 ± 0.3 ×10^3
  Mannitol flux: 25.2 ± 4.3 nmol · h^−1 · cm^−2
[3]; 210 min, 10 mM
  Extracted (mannitol/Na^+) flux (×10^3) ratio: 5.0 ± 0.2 ×10^3
  Mannitol flux: 52.2 ± 4.4 nmol · h^−1 · cm^−2
[3]; 240 min, 10 mM
  Extracted (mannitol/Na^+) flux (×10^3) ratio: 5.1 ± 0.5 ×10^3
  Mannitol flux: 53.2 ± 7.7 nmol · h^−1 · cm^−2
[3]; 270 min, 10 mM
  Extracted (mannitol/Na^+) flux (×10^3) ratio: 5.2 ± 0.5 ×10^3
  Mannitol flux: 54.1 ± 6.8 nmol · h^−1 · cm^−2
[3]; 300 min, 10 mM
  Extracted (mannitol/Na^+) flux (×10^3) ratio: 5.5 ± 0.3 ×10^3
  Mannitol flux: 58.1 ± 4.5 nmol · h^−1 · cm^−2
[3]; 330 min, 10 mM
  Extracted (mannitol/Na^+) flux (×10^3) ratio: 5.7 ± 0.4 ×10^3
  Mannitol flux: 60.9 ± 6.8 nmol · h^−1 · cm^−2
[3]; 360 min, 10 mM
  Extracted (mannitol/Na^+) flux (×10^3) ratio: 6.0 ± 0.3 ×10^3
  Mannitol flux: 63.2 ± 6.2 nmol · h^−1 · cm^−2
[4]; Experiment A: subdermal glucose 3 mM, mannitol 7 mM, 60 min
  Extracted flux ratio (10^3×) relative to Na^+: 2.01 ± 0.33 10^3×
[4]; Experiment A: subdermal glucose 3 mM, mannitol 7 mM, 120 min
  Extracted flux ratio (10^3×) relative to Na^+: 3.21 ± 0.21 10^3×
[4]; Experiment A: subdermal glucose 3 mM, mannitol 7 mM, 180 min
  Extracted flux ratio (10^3×) relative to Na^+: 3.64 ± 0.31 10^3×
[4]; Experiment A: subdermal glucose 3 mM, mannitol 7 mM, 240 min
  Extracted flux ratio (10^3×) relative to Na^+: 3.98 ± 0.24 10^3×
[4]; Experiment A: subdermal glucose 3 mM, mannitol 7 mM, 300 min
  Extracted flux ratio (10^3×) relative to Na^+: 4.29 ± 0.40 10^3×
[4]; Experiment A: subdermal glucose 3 mM, mannitol 7 mM, 360 min
  Extracted flux ratio (10^3×) relative to Na^+: 4.65 ± 0.26 10^3×
[4]; Experiment B: subdermal glucose 5 mM, mannitol 5 mM, 60 min
  Extracted flux ratio (10^3×) relative to Na^+: 1.29 ± 0.58 10^3×
[4]; Experiment B: subdermal glucose 5 mM, mannitol 5 mM, 120 min
  Extracted flux ratio (10^3×) relative to Na^+: 2.13 ± 0.47 10^3×
[4]; Experiment B: subdermal glucose 5 mM, mannitol 5 mM, 180 min
  Extracted flux ratio (10^3×) relative to Na^+: 2.53 ± 0.41 10^3×
[4]; Experiment B: subdermal glucose 5 mM, mannitol 5 mM, 240 min
  Extracted flux ratio (10^3×) relative to Na^+: 2.73 ± 0.38 10^3×
[4]; Experiment B: subdermal glucose 5 mM, mannitol 5 mM, 300 min
  Extracted flux ratio (10^3×) relative to Na^+: 2.98 ± 0.41 10^3×
[4]; Experiment B: subdermal glucose 5 mM, mannitol 5 mM, 360 min
  Extracted flux ratio (10^3×) relative to Na^+: 3.15 ± 0.30 10^3×
[4]; Experiment C: subdermal glucose 7 mM, mannitol 3 mM, 60 min
  Extracted flux ratio (10^3×) relative to Na^+: 0.86 ± 0.45 10^3×
[4]; Experiment C: subdermal glucose 7 mM, mannitol 3 mM, 120 min
  Extracted flux ratio (10^3×) relative to Na^+: 1.38 ± 0.46 10^3×
[4]; Experiment C: subdermal glucose 7 mM, mannitol 3 mM, 180 min
  Extracted flux ratio (10^3×) relative to Na^+: 1.62 ± 0.44 10^3×
[4]; Experiment C: subdermal glucose 7 mM, mannitol 3 mM, 240 min
  Extracted flux ratio (10^3×) relative to Na^+: 1.71 ± 0.39 10^3×
[4]; Experiment C: subdermal glucose 7 mM, mannitol 3 mM, 300 min
  Extracted flux ratio (10^3×) relative to Na^+: 1.83 ± 0.40 10^3×
[4]; Experiment C: subdermal glucose 7 mM, mannitol 3 mM, 360 min
  Extracted flux ratio (10^3×) relative to Na^+: 1.94 ± 0.36 10^3×
[4]; iontophoresis of 6 hours at 0.5 mA/cm^2
  K (analyte/Na^+ extraction ratio vs sub-dermal concentration ratio, slope of FIG. 22b): 0.078
[4]; iontophoresis of 6 hours at 0.5 mA/cm^2, Na^+ fixed 133 mM
  K′ (analyte/Na^+ extraction ratio vs analyte sub-dermal concentration, slope of FIG. 22a): 0.586×10^−3

## [Li] [lithium]
[5]; (10^3×) subdermal [lithium]/[Na^+] ratio 3.4, 60 min
  (10^3×) Extracted (lithium/Na^+) flux ratio: 0.71 ± 0.28 ×10^3
[5]; (10^3×) subdermal [lithium]/[Na^+] ratio 3.4, 120 min
  (10^3×) Extracted (lithium/Na^+) flux ratio: 1.38 ± 0.19 ×10^3
[5]; (10^3×) subdermal [lithium]/[Na^+] ratio 3.4, 180 min
  (10^3×) Extracted (lithium/Na^+) flux ratio: 1.54 ± 0.20 ×10^3
[5]; (10^3×) subdermal [lithium]/[Na^+] ratio 3.4, 240 min
  (10^3×) Extracted (lithium/Na^+) flux ratio: 1.80 ± 0.03 ×10^3
[5]; (10^3×) subdermal [lithium]/[Na^+] ratio 3.4, 300 min
  (10^3×) Extracted (lithium/Na^+) flux ratio: 1.62 ± 0.03 ×10^3
[5]; (10^3×) subdermal [lithium]/[Na^+] ratio 6.5, 60 min
  (10^3×) Extracted (lithium/Na^+) flux ratio: 1.48 ± 0.41 ×10^3
[5]; (10^3×) subdermal [lithium]/[Na^+] ratio 6.5, 120 min
  (10^3×) Extracted (lithium/Na^+) flux ratio: 2.65 ± 0.55 ×10^3
[5]; (10^3×) subdermal [lithium]/[Na^+] ratio 6.5, 180 min
  (10^3×) Extracted (lithium/Na^+) flux ratio: 3.13 ± 0.78 ×10^3
[5]; (10^3×) subdermal [lithium]/[Na^+] ratio 6.5, 240 min
  (10^3×) Extracted (lithium/Na^+) flux ratio: 2.79 ± 0.35 ×10^3
[5]; (10^3×) subdermal [lithium]/[Na^+] ratio 6.5, 300 min
  (10^3×) Extracted (lithium/Na^+) flux ratio: 3.13 ± 0.51 ×10^3
[5]; (10^3×) subdermal [lithium]/[Na^+] ratio 10.3, 60 min
  (10^3×) Extracted (lithium/Na^+) flux ratio: 2.28 ± 0.43 ×10^3
[5]; (10^3×) subdermal [lithium]/[Na^+] ratio 10.3, 120 min
  (10^3×) Extracted (lithium/Na^+) flux ratio: 4.45 ± 0.64 ×10^3
[5]; (10^3×) subdermal [lithium]/[Na^+] ratio 10.3, 180 min
  (10^3×) Extracted (lithium/Na^+) flux ratio: 5.25 ± 0.48 ×10^3
[5]; (10^3×) subdermal [lithium]/[Na^+] ratio 10.3, 240 min
  (10^3×) Extracted (lithium/Na^+) flux ratio: 5.64 ± 0.52 ×10^3
[5]; (10^3×) subdermal [lithium]/[Na^+] ratio 10.3, 300 min
  (10^3×) Extracted (lithium/Na^+) flux ratio: 5.45 ± 0.36 ×10^3
[5]; pig, pH 7.4
  K′ (QLi/QNa=K′.[Li], slope of FIG. 25a): 4.18×10^−3
[5]; short (5-hour) period of iontophoresis at 0.5 mA/cm^2
  K (QLi/QNa=K.[Li]/[Na], slope of FIG. 25b): 0.56
